Measurements from patent publication US12221494B2, “Short synthetic peptides and their uses for treating retinal degenerative diseases and/or tissue injuries” (MacKay Memorial Hospital, priority 2019, dated 2025).

What was measured:
[1] = test system: Sprague-Dawley rats, retinal ischemia/reperfusion (I/R) injury; test: Histological (H&E) evaluation of I/R-induced retinal injury (14 days); format: in vivo; conditions: rat, 14 days after I/R injury
Procedure: (§1) Experimental procedures were approved by the Mackay Memorial Hospital Review Board (Taiwan, R.O.C.). All surgeries were performed under aseptic conditions. Adult 10-week-old male Sprague-Dawley rats (initial body weight=312±11 g) were anesthetized by an intraperitoneal injection of xylazine (10 mg/kg). Peptide was dissolved in 0.85% normal saline to 1 mM and delivered by the subconjunctival injection of 100 μL peptide through a 31-Gneedle with a micro-syringe before the induction of I/R. Normal saline was as a vehicle control. Rat I/R was performed after peptide or vehicle injection for 4 h. Pupils were dilated with 0.5% tropicamide and 0.5% phenylephrine. Body temperature was maintained at 37° C. using a heating blanket After dilation of the pupil, the anterior chamber of the right eye was cannulated with a 27-gauge needle connected to a physiological saline reservoir. The intraocular pressure (IOP) was raised to 110 mmHg by keeping the reservoir at 150 cm above the eye, and retinal ischemia was confirmed by observing whitening of the iris and the loss of the red reflex of the retina. After 90 min of ischemia, the cannulating needle was withdrawn and the IOP was returned to normal pressure, resulting in recovery of the blood supply from the retinal artery and reperfusion injury induced. The reperfusion was evident by the return of the red reflex. Corneal analgesia was achieved using 1 or 2 drops of 0.4% oxybuprocaine hydrochloride, and Ofloxacin ophthalmic gel (0.3%) was applied topically to the eye before and after the procedure. Only the right eye was used in all experiments. A sham procedure was performed at left eye served as an intra-animal control.
Rats (n=6 in each group) were euthanized using an overdose of pentobarbital (intravenously 100 mg/kg of bodyweight) at 14 days after the I/R injury, the eyeballs were marked at the 12 o'clock position of the cornea with silk suture, and then enucleated and fixed in 4% paraformaldehyde(PFA) at 4° C. for 24 h. After fixation, the anterior segment was removed, and the posterior eyeball containing the optic disc was dehydrated in a graded ethanol series and embedded in paraffin. […] To quantify the degree of I/R damage in the retina, we measured the overall central retinal thicknesses (OT, between the GCL to ONL), the inner nuclear layer (INL), and the outer nuclear layer (ONL). The number of cells in the ganglion cell layer (GCL) was calculated using the linear cell density (cells per 200 μm). Three sections per eye were averaged and the mean of six eyes was recorded as the representative value for each group.

[2] = test system: STZ-induced diabetic mice; test: GFAP immunofluorescence staining of retina of STZ-induced diabetic mice; format: in vivo, mouse; conditions: eye drop, 14 days after STZ injection, vehicle/STZ 24.3±2.7
Procedure: Deparaffinized retinal sections were blocked with 10% goat serum and 5% bovine serum albumin (BSA) in PBS containing 0.5% TritonX-100 (PBST) for 20 min at room temperature for blocking nonspecific staining. Staining was performed using primary antibodies against glial fibrillary acidic protein (GFAP) (1:100 dilution) or Iba-1 (1:100 dilution) at 37° C. for 3 h. The slides were subsequently incubated with the appropriate fluorescent-labeled secondary antibodies (1:500 dilution) at 37° C. for 1 h and then counterstained with Hoechst 33258 for 6 min. The slides were then rinsed with PBST three times, mounted with FluorSave™ reagent (Calbiochem) and viewed with an epifluorescence microscope (Zeiss Axioplan 2 imaging; Zeiss, Oberkochen, Germany) Three sections per eye were averaged and the mean of six eyes was recorded as the representative value for each group.
Diabetic mice were generated by intraperitoneal injection of streptozotocin (STZ; 200 mg/kg body weight) at day 1 and day 3. STZ was freshly prepared in 0.1 M citrate buffer (pH 4.5). After injection, mice were supplied with 10% sucrose overnight to prevent sudden hypoglycaemic shock. […] Vascular lesions in the retina was scored in all four retinal quadrants of flat mounts by an epifluorescence microscopy at 200×. […]

[3] = test system: Sprague-Dawley rats, retinal ischemia/reperfusion (I/R) injury; test: TUNEL staining of I/R-injured rat retina (20 h); format: in vivo
Procedure: as §1
After I/R for 20 h, rats (n=6 in each group) were euthanized by an overdose of pentobarbital. Enucleated eyeballs were fixed in 4% PFA for 24 h at 4° C. Fixed retinal tissues were embedded in paraffin. To identify apoptosis of retinal cells, 5 μm sections thick cut through the optic disc, de-paraffinized, rehydrated, incubatedwith 20 μg/mL proteinase K for 10 min, and immunofluorescence staining of apoptotic cells was performed using a terminal deoxynucleotidyl transferase(TdT)-mediated dUTP nick-end labeling (TUNEL)-based kit (Roche Molecular Biochemicals, Indianapolis, IN) according to the manufacturer's instructions. Nuclei were located by counterstaining with Hoechst 33258 for 7 min Sections were observed under an epifluorescence microscope (Zeiss Axioplan 2 imaging; Zeiss, Oberkochen, Germany) equipped with a charge-coupled device (CCD) camera (Zeiss AxioCam HRm, Zeiss) (×400, 6 fields/sample), and quantification was performed using Axiovert software (Zeiss AxioVision Release 4.8.2, Zeiss). Three sections per eye were averaged and the mean of six eyes was recorded as the representative value for each group.
In this example, the neuroprotective effect of the 6-mer variant peptides on neural retina cells and retinal capillary system was investigated using a rat model of I/R injury described in the “Material and Methods” section. Briefly, 6-mer variant peptide (1 mM, 120 μl) was injected into the subconjunctival space of Sprague-Dawley rats for 4 h before the induction of I/R. Then, I/R injury was induced in rat retinas by increasing the intraocular pressure (IOP) in the eye to 110 mmHg for 90 min, followed by 20 h of reperfusion. Subsequently, the level of retinal cell apoptosis was evaluated using TUNEL staining. In addition, the retinal morphology was analyzed with H&E staining 14 days after the I/R injury. Results are summarized in FIGS. 6 to 10, and Tables 6 to 9.

## NH2-(D-Ser)-Leu-Gly-Ala-Glu-Gln-COOH (SLGAEQ; HELM PEPTIDE1{[dS].L.G.A.E.Q}$$$$V2.0; SMILES CC(C)C[C@H](NC(=O)[C@H](N)CO)C(=O)NCC(=O)N[C@@H](C)C(=O)N[C@@H](CCC(=O)O)C(=O)N[C@@H](CCC(N)=O)C(=O)O) [6-mer dS]
[1]; H&E, Control 70.7 ± 2.4, Vehicle + I/R 51.6 ± 0.8
  INL Thickness: 71.3 ± 7.5 μm
[1]; H&E, Control 139.8 ± 4.2, Vehicle + I/R 125.8 ± 4.5
  ONL Thickness: 133.4 ± 7.7 μm
[1]; H&E, Control 326.2 ± 9.4, Vehicle + I/R 260.8 ± 7.1
  Total Thickness (From GCL to INL): 308.9 ± 11.2 μm
[1]; single subconjunctival injection
  overall retinal thickness, in words: improved the overall retinal thickness to a level similar to that in the shame control group
[2]
  GFAP-positive astrocytes: 11.0±1.4 numbers/400× field
[3]; subconjunctival injection 1 mM 4 h before I/R, 20 hours after I/R injury, Vehicle + I/R 27.2 ± 2.7
  Number of TUNEL-positive cells in retina: 7.8 ± 1.5 /200 μm
[3]; subconjunctival injection prior to I/R, 20 h reperfusion
  I/R-induced retinal cell apoptosis (TUNEL staining), in words: only smaller numbers of green fluorescent nuclei
